Experimental data: US20050137220A1 (Pharmacia Corporation, priority 2003, published 2005)
Counter-ions that a name gives are not always drawn.

These compounds were tested on U937 cells (assay: U937 Cell TNFα Release Assay). Conditions: Homo sapiens, U-937, 4 h, read-out: TNF Release Assay Avg. IC50, LPS-stimulated differentiated U937 cells, TNFα by ELISA; mixture of stereoisomers implied unless otherwise noted.
Type: cell-based, human

Point of comparison: `COC(=O)C1NCCc2c1[nH]c1ccc(OC)cc21` (stereo not drawn) [Example 106, methyl 6-methoxy-2,3,4,9-tetrahydro-1H-beta-carboline-1-carboxylate hydrochloride], IC50 26.1 µM. Against it:
- O=C(O)C1NCCc2c1[nH]c1ccc(O)cc21 (stereo not drawn) [Example 33, 6-hydroxy-2,3,4,9-tetrahydro-1H-beta-carboline-1-carboxylic acid hydrochloride] — higher, > 100 µM
- COc1ccc2[nH]c3c(c2c1)C(Cc1ccccc1)CNC3C(=O)O (stereo not drawn) [Example 71, 4-benzyl-6-methoxy-2,3,4,9-tetrahydro-1H-beta-carboline-1-carboxylic acid] — 2.1-fold higher, 54 µM
- COc1ccc2[nH]c3c(c2c1)CC(CO)NC3C(=O)O (stereo not drawn) [Example 24, 3-(hydroxymethyl)-6-methoxy-2,3,4,9-tetrahydro-1H-beta-carboline-1-carboxylic acid] — higher, > 100 µM

Same assay, conditions: Homo sapiens, U-937, LPS-stimulated differentiated U937 cells, TNFα by ELISA; mixture of stereoisomers implied unless otherwise noted; read-out: TNF Release Assay Avg. IC50

`O=C(OCc1ccccc1)C1c2[nH]c3ccc(O)cc3c2C2CCN1C2` (stereo not shown) [Example 63, benzyl 7-hydroxy-3,4,5,10-tetrahydro-1H-2,5-methanoazepino[3,4-b]indole-1-carboxylate hydrochloride] showed an IC50 of 35.9 µM.

Same assay, conditions: Homo sapiens, U-937, read-out: TNF Release Assay Avg. IC50, LPS-stimulated differentiated U937 cells, TNFα by ELISA; mixture of stereoisomers implied unless otherwise noted

Point of comparison: `COc1ccc2[nH]c3c(c2c1)C1CCN(C1)C3C(=O)OCC1CCCCC1` (stereo not shown) [Example 99, cyclohexylmethyl 7-methoxy-3,4,5,10-tetrahydro-1H-2,5-methanoazepino[3,4-b]indinole-1-carboxylate hydrochloride], IC50 9.83 µM. Against it:
- COc1ccc2[nH]c3c(c2c1)C1CCN(C1)C3C(=O)OCCF (stereo not shown) [Example 26, trifluoroacetate] — 4.8-fold lower, 2.04 µM
- CCOC(=O)C1c2[nH]c3ccc(OC)cc3c2C2CCN1C2 (stereo not shown) [Example 92, ethyl 7-methoxy-3,4,5,10-tetrahydro-1H-2,5-methanoazepino[3,4-b]indole-1-carboxylate trifluoroacetate] — 1.8-fold lower, 5.61 µM
- COc1ccc2[nH]c3c(c2c1)C1CCN(C1)C3C(=O)OC(C)C (stereo not shown) [Example 59, isopropyl 7-methoxy-3,4,5,10-tetrahydro-1H-2,5-methanoazepino[3,4-b]indole-1-carboxylate hydrochloride] — higher, > 100 µM
- C=CCOC(=O)C1c2[nH]c3ccc(OC)cc3c2C2CCN1C2 (stereo not shown) [Example 28, allyl 7-methoxy-3,4,5,10-tetrahydro-1H-2,5-methanoazepino[3,4-b]indole-1-carboxylate hydrochloride] — within 1.5-fold, 14.5 µM
- COc1ccc2[nH]c3c(c2c1)C1CCN(C1)C3C(=O)NCc1ccccc1 (stereo not shown) [Example 243, N-benzyl-7-methoxy-3,4,5,10-tetrahydro-1H-2,5-methanoazepino[3,4-b]indole-1-carboxamide hydrochloride] — higher, > 100 µM
- COC(=O)C1c2[nH]c3ccc(O)cc3c2C2CCN1C2 (stereo not shown) [Example 40, methyl 7-hydroxy-3,4,5,10-tetrahydro-1H-2,5-methanoazepino[3,4-b]indole-1-carboxylate hydrochloride] — 2.6-fold higher, 25.5 µM
- COc1ccc2[nH]c3c(c2c1)C1CCN(C1)C3C(=O)OCC(O)CO (stereo not shown) [Example 20, 2,3-dihydroxypropyl 7-methoxy-3,4,5,10-tetrahydro-1H-2,5-methanoazepino[3,4-b]indole-1-carboxylate hydrochloride] — higher, > 100 µM
- COc1ccc2[nH]c3c(c2c1)C1CCN(C1)C3C(=O)OC1C(C)(C)CCCC1(C)C (stereo not shown) [Example 152, 2,2,6,6-tetramethylcyclohexyl 7-methoxy-3,4,5,10-tetrahydro-1H-2,5-methanoazepino[3,4-b]indole-1-carboxylate trifluoroacetate] — 2.2-fold higher, 21.8 µM

Same assay, conditions: read-out: TNF Release Assay Avg. IC50; LPS-stimulated differentiated U937 cells, TNFα by ELISA; mixture of stereoisomers implied unless otherwise noted

`COC(=O)C1c2[nH]c3ccc(O)cc3c2CCN1C` (stereo not drawn) [Example 150, methyl 6-hydroxy-2-methyl-2,3,4,9-tetrahydro-1H-beta-carboline-1-carboxylate] gave an IC50 of 0.523 µM.

Same assay, conditions: read-out: TNF Release Assay Avg. IC50; LPS-stimulated differentiated U937 cells, TNFα by ELISA; mixture of stereoisomers implied unless otherwise noted; hydrochloride

Compound `CCCOC(=O)C1c2[nH]c3ccc(OC)cc3c2C2CCN1C2` (stereo not shown) [Example 90, propyl 7-methoxy-3,4,5,10-tetrahydro-1H-2,5-methanoazepino[3,4-b]indole-1-carboxylate hydrochloride] has an IC50 of 47.9 µM.
